For one assay, the system named is LEFCH. Nature of the assay: In-water applied weed control, transplanted paddy rice (greenhouse). The format is in vivo, Leptochloa chinensis (L.) Nees (Chinese sprangletop). On the procedure:
Weed seeds or nutlets of the desired test plant species were planted in puddled soil (mud) prepared by mixing a shredded, non-sterilized mineral soil (50.5 percent silt, 25.5 percent clay, and 24 percent sand, with a pH of about 7.6 and an organic matter content of about 2.9 percent) and water at a 1:1 volumetric ratio. The prepared mud was dispensed in 365 mL aliquots into 16-ounce (oz.) non-perforated plastic pots with a surface area of 86.59 square centimeters (cm^2) leaving a headspace of 3 centimeters (cm) in each pot. Rice seeds were planted in Sun Gro MetroMix® 306 planting mixture, which typically has a pH of 6.0 to 6.8 and an organic matter content of about 30 percent, in plastic plug trays. Seedlings at the second or third leaf stage of growth were transplanted into 860 mL of mud contained in 32-oz. non-perforated plastic pots with a surface area of 86.59 cm^2 4 days prior to herbicide application. The paddy was created by filling the headspace of the pots with 2.5 to 3 cm of water. When required to ensure good germination and healthy plants, a fungicide treatment and/or other chemical or physical treatment was applied. The plants were grown for 4-22 days in a greenhouse with an approximate 14 hour (h) photoperiod which was maintained at about 29° C. during the day and about 26° C. during the night. Nutrients were added as Osmocote® (17:6:10, N:P:K+minor nutrients) at 2 g per cup. Water was added on a regular basis to maintain the paddy flood, and supplemental lighting was provided with overhead metal halide 1000-Watt lamps as necessary. The plants were employed for testing when they reached the first through fourth true leaf stage. […]
Treatment requirements for each compound or fungicidal component were calculated based upon the rates being tested, the concentration of active ingredient or acid equivalent in the formulation, an application volume of 2 mL per component per pot, and an application area of 86.59 cm^2 per pot.
For formulated compounds, a measured amount was placed in an individual 100 or 200 mL glass vial and was dissolved in a volume of 1.25% (v/v) Agri-Dex® crop oil concentrate to obtain application solutions. […]
The treated plants and control plants were placed in a greenhouse as described above and water was added as needed to maintain a paddy flood. After approximately 3 weeks the condition of the test plants as compared with that of the untreated plants was determined visually and scored on a scale of 0 to 100 percent where 0 corresponds to no injury or growth inhibition and 100 corresponds to complete kill. […]

Another assay has as its system ECHOR. Briefly: Postemergence foliar-applied weed control, direct-seeded rice (greenhouse). The format is in vivo, Echinochloa oryzoides (Ard.) Fritsch (early watergrass). The following applies: r78-80 ester 8/16/32 g ae/ha alone, r81-83 difenoconazole 50/100/200 g ai/ha alone, r84-92 ester 8/16/32 at each of 50, 100, 200. On the procedure: Seeds or nutlets of the desired test plant species were planted in a soil matrix prepared by mixing aloam or sandy loam soil (e.g., 28.6 percent silt, 18.8 percent clay, and 52.6 percent sand, with a pH of about 5.8 and an organic matter content of about 1.8 percent) and calcareous grit in an 80 to 20 ratio. The soil matrix was contained in plastic pots with a volume of 1 quart and a surface area of 83.6 square centimeters (cm^2). […] The plants were grown for 8-22 days in a greenhouse with an approximate 14 hour (h) photoperiod which was maintained at about 29° C. during the day and 26° C. during the night. Nutrients (Peters Excel® 15-5-15 5-Ca 2-Mg and iron chelate) were applied in the irrigation solution as needed and water was added on a regular basis. Supplemental lighting was provided with overhead metal halide 1000-Watt lamps as necessary. The plants were employed for testing when they reached the first through fourth true leaf stage.
Treatments consisted of the acid or esters of 4-amino-3-chloro-5-fluoro-6-(4-chloro-2-fluoro-3-methoxy-phenyl)pyridine-2-carboxylic acid (Compound A), each formulated as an SC (suspension concentrate), and various fungicidal components alone and in combination. Forms of compound A were applied on an acid equivalent basis.
For treatments comprised of formulated compounds, measured amounts of compounds were placed individually in 25 mL glass vials and diluted in a volume of 1.25% volume per volume (v/v) Agri-Dex® crop oil concentrate to obtain 12× stock solutions. […]
The treated plants and control plants were placed in a greenhouse as described above and watered by sub-irrigation to prevent wash-off of the test compounds. After approximately 3 weeks, the condition of the test plants as compared with that of the untreated plants was determined visually and scored on a scale of 0 to 100 percent where 0 corresponds to no injury or growth inhibition and 100 corresponds to complete kill. […]

Structures are written as SMILES. Several values for one entry are separate records, joined by “and”; a condition that tells them apart may be missing. Equal values may be shown once.

In the case of `COc1c(Cl)ccc(-c2nc(C(=O)OCc3ccccc3)c(Cl)c(N)c2F)c1F` [Compound A Benzyl Ester], the “Visual Weed Control (%) - 19 DAA LEFCH Obs” value in the assay on LEFCH (Compound A Benzyl Ester 8 g ae/ha) is on record as 3%; in the assay with LEFCH (Compound A Benzyl Ester 16 g ae/ha), 8%. In addition, in the assay on ECHOR, the “Visual Weed Control (%) - 21 DAA ECHOR Obs” value is 45% and 43% and 70%.
